In article PMC9800739, “Epigenetic drugs in somatostatin type 2 receptor radionuclide theranostics and radiation transcriptomics in mouse pheochromocytoma models” (Theranostics, 2023):
Read-outs that look alike come from different tables or passages of the source.

Columns and labels:
BON‑1 xenografts = test system: BON‑1 xenografts; set-up: method as in PMID 27363833; conditions: after treatment with DAC; cited from earlier work
SSTR2 [1] = target: T1, SSTR2 (Mus musculus, UniProt P30875); assay: Immunoblotting of SSTR2 in cells after epigenetic treatment; assay type: cell-based
T1 construct: endogenous in cells; host or cells: MPC and MTT mouse pheochromocytoma cells (cell homogenates), untreated or treated with VPA + DAC
Method: Cells were seeded into collagen-coated microplates or collagen-coated flasks 24 h before epigenetic treatment (ET) start and treated twice (24 h interval) with VPA and DAC, as single and combination doses, respectively. Treatment effects were investigated two to six days (d) after final ET. Preparation of epigenetic drugs is reported in Supplemental Information 1.1.
Cells seeded into collagen-coated flasks (2.5×10^4/cm^2) were harvested three days after treatment start by incubation with Dulbecco's phosphate-buffered saline containing 2 mmol/L EDTA at 4 °C. Cell pellets were frozen and stored at -70°C. Frozen tumor tissue obtained from allograft mice was cut into 4 × 4 mm pieces.
Protein extraction from cells and tissues, gel electrophoresis, and immunoblotting was performed as described previously with some modifications. In brief, tissue homogenization was performed using the gentleMACS™ dissociator (Miltenyi Biotech, Bergisch Gladbach, Germany). Immunodetection of proteins was performed using the recombinant primary antibodies anti-SSTR2 [UMB1] (Abcam, Cambridge, UK), anti-CHGA [C-20] (Santa Cruz Biotechnology, Heidelberg, Germany), and anti-ACTB [A5316] (Sigma-Aldrich). Densitometric analysis of protein bands was performed using ImageQuant TL (GE Healthcare, Chicago, IL, USA).

[2] = test system: MPC and MTT allograft mice; assay: Biodistribution / retention of [64Cu]Cu-DOTA-TATE; assay type: in vivo, mouse; conditions: DAC-treated animals; no relationship with SUV changes in tumors
Method: Radiotracer was injected as described for PET imaging. Mice were sacrificed 60 min after radiotracer injection, organs were excised and weighted, and activity in tissue samples was measured using the gamma counter Wizard (PerkinElmer, Waltham, MA, USA). Standardized uptake values were determined.
(§1) 107 (30%), muscle (0%), kidneys (25%), and liver (35%).
(§2) 116 attenuation. Images were post-processed and analyzed using ROVER (ABX). Three-
118 kidneys (15%), and liver (25%).
119 1.6 Sstr2 promoter methylation analysis
122 Bisulfite Kit (Qiagen, Hilden, Germany). Bisulfite-converted DNA was amplified using a
Amplicon size (195bp) was confirmed
125 Switzerland). Electropherograms were compared to PCR products amplified from bisulfite-
127 an unmethylated 900bp-DNA fragment. The latter was generated by amplification of genomic
129 of primers are provided in (Table S 2).

MPC tumors = assay type: in vivo, mouse; conditions: MPC
Method: During anesthesia, animals were continuously warmed at 37°C. […] Animals were sacrificed using CO2 inhalation and cervical dislocation.
as §1, §2
118 kidneys (15%), and liver (25%). […]

[3] = intraperitoneal doses applied; cited from earlier work
From the text: The estimated human equivalent doses corresponded to 20‒30% of the clinically applied tumor-suppressive doses in patients, [45]. Lower doses were used, since we focused on the epigenetic modulation effects rather than the cytotoxic effects of VPA and DAC.

SSTR2 [4] = test system: SSTR2; set-up: method as in PMID 26211366; conditions: neuroendocrine tumor models; cited from earlier work
[5] = [64Cu]Cu-DOTA-TATE, 40‒60 min p.i., day 1 after final ET, control or VPA 250 mg/kg, DAC 1 mg/kg days −3 and 0, mean ± SEM

T1 sequence (P30875 whole entry): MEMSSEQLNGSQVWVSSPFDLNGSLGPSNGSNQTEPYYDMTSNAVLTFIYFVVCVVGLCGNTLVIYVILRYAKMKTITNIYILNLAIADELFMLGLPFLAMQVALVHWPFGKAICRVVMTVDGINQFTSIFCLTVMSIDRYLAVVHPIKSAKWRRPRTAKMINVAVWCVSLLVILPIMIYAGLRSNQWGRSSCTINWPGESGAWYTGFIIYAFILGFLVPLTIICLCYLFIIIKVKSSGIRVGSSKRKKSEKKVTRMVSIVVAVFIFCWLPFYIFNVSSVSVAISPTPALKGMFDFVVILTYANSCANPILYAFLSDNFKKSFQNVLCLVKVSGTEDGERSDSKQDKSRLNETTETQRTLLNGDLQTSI

Structure (SMILES)	SUVmean tumor (MPC tumors; [5])	SUVmax ratio tumor / muscle (MPC tumors; animal 1, 40‒60 min p.i.)	SUVmax tumor (MPC tumors; animal 1, 40‒60 min p.i.)	SUVmean ratio tumor / muscle (MPC tumors; animal 1, 40‒60 min p.i.)	SUVmean tumor (MPC tumors; animal 1, 40‒60 min p.i.)	SUVmax ratio tumor / muscle (MPC tumors; animal 2, 40‒60 min p.i.)	SUVmax tumor (MPC tumors; animal 2, 40‒60 min p.i.)	SUVmean ratio tumor / muscle (MPC tumors; animal 2, 40‒60 min p.i.)	SUVmean tumor (MPC tumors; animal 2, 40‒60 min p.i.)	SUVmax ratio tumor / muscle (MPC tumors; animal 3, 40‒60 min p.i.)	SUVmax tumor (MPC tumors; animal 3, 40‒60 min p.i.)	SUVmean ratio tumor / muscle (MPC tumors; animal 3, 40‒60 min p.i.)	SUVmean tumor (MPC tumors; animal 3, 40‒60 min p.i.)	SUVmax ratio tumor / muscle (MPC tumors; animal 4, 40‒60 min p.i.)	SUVmax tumor (MPC tumors; animal 4, 40‒60 min p.i.)	SUVmean ratio tumor / muscle (MPC tumors; animal 4, 40‒60 min p.i.)	SUVmean tumor (MPC tumors; animal 4, 40‒60 min p.i.)	SUVmax ratio tumor / muscle (MPC tumors; as SUVmean, mean ± SEM)	SUVmax tumor (MPC tumors; as SUVmean, mean ± SEM)	SUVmean ratio tumor / muscle (MPC tumors; as SUVmean, mean ± SEM)	also measured
Nc1ncn([C@H]2C[C@H](O)[C@@H](CO)O2)c(=O)n1 [DAC, 5-Aza-2'-deoxycytidine]	7.38 ± 0.74	57.8	11.5	68.2	5.09	65.6	13.9	96.7	6.74	58.7	15.3	93.2	7.52	69.1	15.2	80.6	7.99	63.8 ± 2.35	15.3 ± 1.49	88.6 ± 6.39	increase in [68Ga]Ga-DOTA-TATE uptake (BON‑1 xenografts): approximately 2 fold; induction of SSTR2 protein levels and radiotracer uptake, comparison (SSTR2 [1]; MPC and MTT models): more effectively compared to VPA; SSTR2 up-regulation compared to controls (SSTR2/ACTB) (SSTR2 [1]; MPC cells, DAC 10^-6 mol/L, final ET + 2 d): 5.3 fold; activity retention in the liver, effect [2]: significantly higher in DAC-treated animals; SUVmax ratio tumor / muscle (MPC tumors; animal 5, 40‒60 min p.i.): 67.9; SUVmax tumor (MPC tumors; animal 5, 40‒60 min p.i.): 20.6; SUVmean ratio tumor / muscle (MPC tumors; animal 5, 40‒60 min p.i.): 104; SUVmean tumor (MPC tumors; animal 5, 40‒60 min p.i.): 9.57
CCCC(CCC)C(=O)O [VPA, valproic acid]	6.91 ± 1.19	33.0	8.80	60.0	4.22	60.8	10.8	67.2	5.61	78.3	19.7	91.2	8.55	65.2	18.5	100	9.24	59.3 ± 9.54	14.5 ± 2.73	79.6 ± 9.53	time for serum levels to normalize (VPA) [3]: eight; SSTR2 stimulation (effect) (SSTR2 [4]): stimulate SSTR2
